{"source": "paper PMC6359144", "about": "(International Journal of Molecular Sciences, 2019)", "key": {"[1]": {"tested_on": "DLD-1 colon carcinoma cells", "test": "MTT assay, DLD-1 colon carcinoma cells", "format": "cell-based", "details": "Homo sapiens, DLD-1, read-out: IC50 DLD-1 (72 h)", "protocol": "(§1) HT-29 (ACC-299), HCT-116 (ACC-581) and DLD-1 (ACC-278) colon carcinoma, MCF-7 (ACC-115) breast carcinoma, KB-V1 (ACC-149), 518A2 (Department of Radiotherapy and Radiobiology, University Hospital Vienna) melanoma and Ea.Hy926 (ATCC no. CRL-2922) HUVEC derived endothelial hybrid cells line were grown in Dulbecco’s Modified Eagle Medium (DMEM; Biochrom), high glucose supplemented with 10% (v/v) fetal bovine serum (FBS; Biochrom.) and 1% (v/v) Antibiotic-Antimycotic solution (anti-anti; Thermo Scientific). HDFa human dermal fibroblasts (ATCC: PCS-201-012™) were grown in DMEM supplemented with 10% FBS, 1% anti-anti and 2 mM glutamine. The cells were incubated at 37 °C, 5% CO2, 95% humidified atmosphere. By repeated addition of topotecan or vinblastine at the maximum tolerated dose to the cell medium of MCF-7 and KB-V1 cells, the cells were rendered multidrug-resistant, indicated as MCF-7^Topo and KB-V1^Vbl, respectively. They were serially passaged following trypsinization by using 0.05% trypsin/0.02% EDTA (Biochrom). Mycoplasma contamination was routinely monitored, and only mycoplasma–free cultures were used.\n(§2) MTT [3-(4,5-dimethylthiazol-2-yl)-2,5-diphenyltetrazolium bromide] (ABCR) was used to determine the cytotoxicity of test compounds as previously described. Briefly, HDFa human dermal fibroblasts and Ea.Hy926 endothelial hybrid cells (both 1 × 10^5 cells/mL, 100 µL/well), 518A2 melanoma, KB-V1^Vbl cervix carcinoma, MCF-7^Topo breast carcinoma, HT-29, DLD-1 and HCT-116 colon carcinoma (all 5 × 10^4 cells/mL, 100 µL/well) were grown in 96-well culture plates for 24 h. Then, various concentrations of the test compounds were added and the cells were incubated for 24-72 h at 37 °C. After adding 12.5 µL of a 0.5% MTT solution in PBS (final concentration 0.05%) to cell medium, microplates were incubated for 2 h and subsequently swiftly turned to discard the medium. The precipitate of formazan crystals was then dissolved in a 10% solution of SDS in DMSO containing 0.6% acetic acid. To ensure complete dissolution of formazan, microplates were incubated for at least 4 h at 37 °C. Finally, the absorbance at λ = 570 nm (formazan) and 630 nm (background) was measured using a microplate reader (Tecan F200). All experiments were carried out in quadruplicate and the percentage of viable cells was calculated as the mean ± SD with controls set to 100%. Selected graphs of MTT assays can be found in the Supporting Information (Figure S8)."}, "[2]": {"tested_on": "non-malignant HDFa dermal fibroblasts", "test": "MTT assay, HDFa dermal fibroblasts", "format": "cell-based", "details": "Homo sapiens, read-out: IC50 HDFa (72 h)", "protocol": "as §1\nMTT [3-(4,5-dimethylthiazol-2-yl)-2,5-diphenyltetrazolium bromide] (ABCR) was used to determine the cytotoxicity of test compounds as previously described. Briefly, HDFa human dermal fibroblasts and Ea.Hy926 endothelial hybrid cells (both 1 × 10^5 cells/mL, 100 µL/well), 518A2 melanoma, KB-V1^Vbl cervix carcinoma, MCF-7^Topo breast carcinoma, HT-29, DLD-1 and HCT-116 colon carcinoma (all 5 × 10^4 cells/mL, 100 µL/well) were grown in 96-well culture plates for 24 h. Then, various concentrations of the test compounds were added and the cells were incubated for 24-72 h at 37 °C. […] Finally, the absorbance at λ = 570 nm (formazan) and 630 nm (background) was measured using a microplate reader (Tecan F200). All experiments were carried out in quadruplicate and the percentage of viable cells was calculated as the mean ± SD with controls set to 100%. […]"}, "[3]": {"target": "T1, purified pig brain tubulin (Sus scrofa, UniProt P02550+P02554)", "T1 construct": "using purified pig brain tubulin; from tissue; host or cells: pig brain", "T1 sequence (P02554 whole entry)": "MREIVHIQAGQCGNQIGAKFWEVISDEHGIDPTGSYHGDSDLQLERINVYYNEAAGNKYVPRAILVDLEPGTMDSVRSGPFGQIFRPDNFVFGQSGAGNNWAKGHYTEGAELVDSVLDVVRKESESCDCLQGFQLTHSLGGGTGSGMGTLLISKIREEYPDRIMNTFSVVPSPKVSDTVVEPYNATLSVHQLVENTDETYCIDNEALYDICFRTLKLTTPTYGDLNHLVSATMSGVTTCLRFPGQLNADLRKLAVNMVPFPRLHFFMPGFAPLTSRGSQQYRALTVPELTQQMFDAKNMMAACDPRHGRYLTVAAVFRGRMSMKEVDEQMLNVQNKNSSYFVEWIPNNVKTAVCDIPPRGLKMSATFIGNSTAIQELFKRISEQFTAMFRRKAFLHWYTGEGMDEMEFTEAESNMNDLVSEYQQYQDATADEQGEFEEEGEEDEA", "T1 sequence (P02550 whole entry)": "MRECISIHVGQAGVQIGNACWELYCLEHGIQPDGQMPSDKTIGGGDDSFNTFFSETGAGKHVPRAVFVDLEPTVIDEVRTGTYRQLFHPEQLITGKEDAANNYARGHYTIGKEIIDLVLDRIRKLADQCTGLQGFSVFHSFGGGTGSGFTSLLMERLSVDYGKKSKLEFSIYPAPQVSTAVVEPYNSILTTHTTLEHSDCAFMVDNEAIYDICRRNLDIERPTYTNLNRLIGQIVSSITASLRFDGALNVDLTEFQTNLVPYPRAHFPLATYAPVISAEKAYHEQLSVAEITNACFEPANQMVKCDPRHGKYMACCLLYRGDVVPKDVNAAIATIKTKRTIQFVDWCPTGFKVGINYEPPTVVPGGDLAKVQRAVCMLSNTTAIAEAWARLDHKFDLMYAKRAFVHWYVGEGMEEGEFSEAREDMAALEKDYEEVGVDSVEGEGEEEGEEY", "test": "Turbidimetric cell-free tubulin polymerization assay", "format": "biochemical", "details": "10 µM, 340 nm", "protocol": "An amount of 50 µL of Brinkley’s buffer 80 (BRB80) supplemented with 20% glycerol and 3 mM GTP was given in a black 96-well half-area plate with clear bottom. Then, test compounds 4d–f (final concentration: 5 µM, or 10 µM) or vehicle (DMSO) were added. After adding 50 µL tubulin in BRB80 (10 mg/mL) was pipetted in the wells and immediately placed in a pre-heated microplate reader (Tecan). The polymerization was determined turbidimetrically at 37 °C by measuring the absorption at 340 nm for 120 min in intervals of 5 min. Values were normally distributed for each group (Shapiro–Wilk test, p > 0.05) and there was homogeneity of variance (Levene’s test, p > 0.05)."}, "[4]": {"tested_on": "Ea.Hy926 endothelial hybrid cells", "test": "MTT assay, Ea.Hy926 endothelial hybrid cells", "format": "cell-based", "details": "Homo sapiens, EA.hy 926, read-out: IC50 Ea.Hy926 (72 h)", "protocol": "as §1, §2"}, "518A2 melanoma cells [5]": {"tested_on": "518A2 melanoma cells", "test": "Cell cycle analysis by flow cytometry after PI staining", "format": "cell-based, human", "details": "24 h; for cell cycle arresting effect: 518A2 cells, FACS", "protocol": "The 518A2 melanoma cells (3 mL/well; 5 × 10^4 cells/mL) were grown on 6-well tissue culture plates for 24 h. After treatment with 4d (150, and 200 nM), 4e (0.8, and 1 µM), 4f (2, and 3 µM), or DMSO (control) for another 24 h, cells were fixed (70% EtOH, 24 h, 4 °C), washed with PBS and incubated with propidium iodide (PI; Carl Roth) staining solution (50 µg/mL PI, 0.1% sodium citrate, 50 µg/mL RNase A in PBS) for 30 min at 37 °C. […] The percentages of cells in the different phases of the cell cycle (G1, S and G2/M phase) were determined using the CXP Analysis software (Beckmann Coulter). The percentage of apoptotic cells was derived from sub-G1 peaks. Data was normally distributed for each group (Shapiro–Wilk test, p > 0.05). Since homogeneity of variance (Levene’s test, p < 0.05) was violated, a correction was calculated for Anova (Welch test)."}, "[6]": {"tested_on": "KB-V1^Vbl cervix carcinoma cells", "test": "MTT assay, KB-V1^Vbl cervix carcinoma cells", "format": "cell-based", "details": "Homo sapiens, read-out: IC50 KB-V1^Vbl (72 h)", "protocol": "as §1, §2"}, "518A2 melanoma cells [7]": {"tested_on": "518A2 melanoma cells", "test": "MTT assay, 518A2 melanoma cells", "format": "cell-based, human", "details": "for IC50: Homo sapiens, MTT, mean ± SD of four experiments", "protocol": "as §1, §2"}, "[8]": {"tested_on": "HCT-116 colon carcinoma cells", "test": "MTT assay, HCT-116 colon carcinoma cells", "format": "cell-based", "details": "Homo sapiens, HCT-116, read-out: IC50 HCT-116 (72 h)", "protocol": "as §1, §2"}, "[9]": {"details": "518A2, read-out: IC50 518A2 (72 h), 72 h"}, "[10]": {"details": "518A2, 24 h, read-out: IC50 518A2 (24 h)"}}, "note": "Entries after “also recorded” stand apart in the source; their conditions may differ. Like-named read-outs stand apart in the source and are kept apart here."}
{"smiles": "COc1ccc(-c2ocnc2-c2cc(Br)c(OC)c(OC)c2)cc1OCCCC(=O)NO", "note": "[4d, N-Hydroxy-4-[1-methoxy-4-(4’-(3’’-bromo-4’’,5’’-dimethoxyphenyl)oxazol-5’-yl)-2-phenoxy]butanamide]", "values": [{"measurement": "IC50", "setting": "[1]", "value": "0.29 ± 0.02", "unit": "µM"}, {"measurement": "IC50", "setting": "[2]", "value": "23.9 ± 1.6", "unit": "µM"}, {"measurement": "inhibition of tubulin polymerization", "setting": "[3]", "value": "inhibited the polymerization of pig brain tubulin nearly completely; also recorded: significant inhibition of tubulin polymerization"}, {"measurement": "IC50", "setting": "[4]", "value": "0.018 ± 0.004", "unit": "µM"}, {"measurement": "cells in G1", "setting": "518A2 melanoma cells [5]; 0.2 µM", "value": "33.9 ± 3.4", "unit": "%"}, {"measurement": "cells in G2/M", "setting": "518A2 melanoma cells [5]; 0.2 µM", "value": "35.4 ± 2.4", "unit": "%"}, {"measurement": "cells in S", "setting": "518A2 melanoma cells [5]; 0.2 µM", "value": "16.3 ± 1.1", "unit": "%"}, {"measurement": "cells in Sub-G1", "setting": "518A2 melanoma cells [5]; 0.2 µM", "value": "14.4 ± 2.8", "unit": "%"}, {"measurement": "cell cycle arresting effect", "setting": "518A2 melanoma cells [5]", "value": "accumulation of 518A2 cells in G2/M phase"}, {"measurement": "IC50", "setting": "[6]", "value": "0.48 ± 0.06", "unit": "µM"}, {"measurement": "IC50 after 72 h compared with IC50 after 24 h", "setting": "518A2 melanoma cells [7]; 518A2 melanoma cells, fold lower", "value": "about eight-fold"}, {"measurement": "IC50", "setting": "518A2 melanoma cells [7]; [9]", "value": "0.11 ± 0.01", "unit": "µM"}, {"measurement": "IC50", "setting": "518A2 melanoma cells [7]; [10]", "value": "0.71 ± 0.05", "unit": "µM"}, {"measurement": "IC50", "setting": "[8]", "value": "0.13 ± 0.01", "unit": "µM"}]}
{"smiles": "COc1ccc(-c2ocnc2-c2cc(Br)c(OC)c(OC)c2)cc1OCCCCCC(=O)NO", "note": "[4f, N-Hydroxy-6-[1-methoxy-4-(4’-(3’’-bromo-4’’,5’’-dimethoxyphenyl)oxazol-5’-yl)-2-phenoxy]hexanamide]", "values": [{"measurement": "IC50", "setting": "[1]", "value": "4.1 ± 0.3", "unit": "µM"}, {"measurement": "IC50", "setting": "[2]", "value": "> 50", "unit": "µM"}, {"measurement": "inhibition of tubulin polymerization", "setting": "[3]", "value": "virtually none"}, {"measurement": "IC50", "setting": "[4]", "value": "0.41 ± 0.04", "unit": "µM"}, {"measurement": "cells in G1", "setting": "518A2 melanoma cells [5]; 2 µM", "value": "53.9 ± 0.8", "unit": "%"}, {"measurement": "cells in G2/M", "setting": "518A2 melanoma cells [5]; 2 µM", "value": "22.2 ± 0.5", "unit": "%"}, {"measurement": "cells in S", "setting": "518A2 melanoma cells [5]; 2 µM", "value": "18.3 ± 0.7", "unit": "%"}, {"measurement": "cells in Sub-G1", "setting": "518A2 melanoma cells [5]; 2 µM", "value": "5.6 ± 0.8", "unit": "%"}, {"measurement": "cells in G1", "setting": "518A2 melanoma cells [5]; 3 µM", "value": "54.2 ± 0.5", "unit": "%"}, {"measurement": "cells in G2/M", "setting": "518A2 melanoma cells [5]; 3 µM", "value": "22.5 ± 0.3", "unit": "%"}, {"measurement": "cells in S", "setting": "518A2 melanoma cells [5]; 3 µM", "value": "16.9 ± 0.6", "unit": "%"}, {"measurement": "cells in Sub-G1", "setting": "518A2 melanoma cells [5]; 3 µM", "value": "6.3 ± 0.9", "unit": "%"}, {"measurement": "cell cycle arresting effect", "setting": "518A2 melanoma cells [5]", "value": "induced a G1 phase arrest"}, {"measurement": "IC50", "setting": "[6]", "value": "7.1 ± 0.2", "unit": "µM"}, {"measurement": "IC50", "setting": "518A2 melanoma cells [7]; [9]", "value": "6.4 ± 0.4", "unit": "µM"}, {"measurement": "IC50", "setting": "518A2 melanoma cells [7]; [10]", "value": "7.6 ± 0.2", "unit": "µM"}, {"measurement": "IC50", "setting": "[8]", "value": "6.3 ± 0.4", "unit": "µM"}]}
{"smiles": "COc1ccc(-c2ocnc2-c2cc(Br)c(OC)c(OC)c2)cc1OCCCCC(=O)NO", "note": "[4e, N-Hydroxy-5-[1-methoxy-4-(4’-(3’’-bromo-4’’,5’’-dimethoxyphenyl)oxazol-5’-yl)-2-phenoxy]pentanamide]", "values": [{"measurement": "IC50", "setting": "[1]", "value": "2.1 ± 0.4", "unit": "µM"}, {"measurement": "IC50", "setting": "[2]", "value": "> 100", "unit": "µM"}, {"measurement": "inhibition of tubulin polymerization", "setting": "[3]", "value": "merely moderate inhibitory effect"}, {"measurement": "IC50", "setting": "[4]", "value": "0.66 ± 0.01", "unit": "µM"}, {"measurement": "cells in G1", "setting": "518A2 melanoma cells [5]; 0.8 µM", "value": "43.1 ± 1.3", "unit": "%"}, {"measurement": "cells in G2/M", "setting": "518A2 melanoma cells [5]; 0.8 µM", "value": "32.6 ± 1.7", "unit": "%"}, {"measurement": "cells in S", "setting": "518A2 melanoma cells [5]; 0.8 µM", "value": "19.2 ± 0.7", "unit": "%"}, {"measurement": "cells in Sub-G1", "setting": "518A2 melanoma cells [5]; 0.8 µM", "value": "5.1 ± 1.2", "unit": "%"}, {"measurement": "cells in G1", "setting": "518A2 melanoma cells [5]; 1 µM", "value": "35.4 ± 1.1", "unit": "%"}, {"measurement": "cells in G2/M", "setting": "518A2 melanoma cells [5]; 1 µM", "value": "34.9 ± 3.5", "unit": "%"}, {"measurement": "cells in S", "setting": "518A2 melanoma cells [5]; 1 µM", "value": "19.0 ± 0.3", "unit": "%"}, {"measurement": "cells in Sub-G1", "setting": "518A2 melanoma cells [5]; 1 µM", "value": "10.8 ± 4.4", "unit": "%"}, {"measurement": "cell cycle arresting effect", "setting": "518A2 melanoma cells [5]", "value": "accumulation of 518A2 cells in G2/M phase"}, {"measurement": "IC50", "setting": "[6]", "value": "2 ± 0.3", "unit": "µM"}, {"measurement": "IC50", "setting": "518A2 melanoma cells [7]; [9]", "value": "0.8 ± 0.07", "unit": "µM"}, {"measurement": "IC50", "setting": "518A2 melanoma cells [7]; [10]", "value": "2.4 ± 0.3", "unit": "µM"}, {"measurement": "IC50", "setting": "[8]", "value": "2.2 ± 0.3", "unit": "µM"}]}
